For three compounds, melting point results are on record in US6528538B1, “Cyclic compounds useful in the treatment of dyslipidaemia, atherosclerosis and diabetes, pharamaceutical compositions and preparation process” (Merck Patentgesellschaft, priority 1998, dated 2003).

In general, melting point refers to the temperature, or range, at which the solid turns liquid.

Compound `CCOC(=O)C1(c2ccc(Cl)cc2)OCC2(CCC2)CO1` registered a melting point of 117 °C.
For `O=C(O)C1OCC2(CCC2c2ccc(Cl)cc2)CO1` (stereo not drawn), the melting point is 171 °C.
In the case of `O=C(O)C1OCC2(CO1)c1ccccc1-c1ccccc12` it was 158 to 160 °C.
